14 compounds from article PMC8199067, “Urolithin and Reduced Urolithin Derivatives as Potent Inhibitors of Tyrosinase and Melanogenesis: Importance of the 4-Substituted Resorcinol Moiety” (International Journal of Molecular Sciences, 2021) can be followed below.

The target in the assay is mushroom tyrosinase (Agaricus bisporus, UniProt C7FF04). As to the kind of experiment: Mushroom tyrosinase inhibitory assay (L-tyrosine substrate). Format: biochemical. The conditions noted are these: 50 μM, L-tyrosine as substrate, mean ± SEM; NI means no inhibition. Here is the method: The experiment was repeated three times. Mushroom tyrosinase inhibitions % were calculated using:% Inhibition = [1 − (A/B)] × 100(1) where A is the absorbance of the test compound and B is the absorbance of the blank.
mushroom tyrosinase, sequence (C7FF04 1-392 limits assumed): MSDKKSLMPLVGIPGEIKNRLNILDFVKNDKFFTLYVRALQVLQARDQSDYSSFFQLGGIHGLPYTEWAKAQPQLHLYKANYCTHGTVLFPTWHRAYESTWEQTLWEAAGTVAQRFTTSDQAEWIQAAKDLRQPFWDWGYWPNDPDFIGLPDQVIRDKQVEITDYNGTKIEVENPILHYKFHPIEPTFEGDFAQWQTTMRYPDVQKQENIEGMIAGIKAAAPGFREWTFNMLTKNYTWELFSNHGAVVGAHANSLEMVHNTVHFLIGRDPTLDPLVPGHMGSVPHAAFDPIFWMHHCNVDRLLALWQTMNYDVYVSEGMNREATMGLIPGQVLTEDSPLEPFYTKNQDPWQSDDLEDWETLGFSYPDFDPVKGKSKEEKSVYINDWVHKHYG
Log-linear curves were plotted, and their equations were determined.

Where only a bound is given, the exact number is not on record here.

As for `COc1ccc2c(c1)oc(=O)c1ccccc12` [Compound 1b, 3-Methoxy-6H-benzo[c]chromen-6-one], the inhibition at 50 µM is less than 0%.

As to `COc1cc(OC)c2c(c1)oc(=O)c1ccccc12` [Compound 1d, 1,3-Dimethoxy-6H-benzo[c]chromen-6-one], the inhibition at 50 µM is less than 0%.

`O=c1oc2cc(O)cc(O)c2c2ccc(O)cc12` [Compound 1f, 1,3,8-Trihydroxy-6H-benzo[c]chromen-6-one]: the “Tyrosinase Inhibition (%)” value is recorded as 12.68 ± 6.09% and the inhibition at 50 µM is 13%.

In turn, `COc1ccc2c(c1)c(=O)oc1cc(O)ccc12` [Compound 1g, 3-Hydroxy-8-methoxy-6H-benzo[c]chromen-6-one] displayed an inhibition at 50 µM of less than 0%.

In turn, `COc1ccc2c(c1)oc(=O)c1cc(OC)ccc12` [Compound 1i, 3,8-Dimethoxy-6H-benzo[c]chromen-6-one] registered an inhibition at 50 µM of less than 0%.

Compound `COc1cc(OC)c2c(c1)oc(=O)c1cc(OC)ccc12` [Compound 1j, 1,3,8-Trimethoxy-6H-benzo[c]chromen-6-one] came in with an inhibition at 50 µM of less than 0%.

Take `COc1ccc(-c2ccccc2CO)c(O)c1` [Compound 2b, 2′-(Hydroxymethyl)-4-methoxy-[1,1′-biphenyl]-2-ol]: the inhibition at 50 µM is less than 0%.

In the case of `OCc1ccccc1-c1c(O)cc(O)cc1O` [Compound 2c, 2′-(Hydroxymethyl)-[1,1′-biphenyl]-2,4,6-triol], the “Tyrosinase Inhibition (%)” value worked out at 19.78 ± 15.84% and the inhibition at 50 µM was determined as 20%.

For the compound `COc1cc(O)c(-c2ccccc2CO)c(OC)c1` [Compound 2d, 2′-(Hydroxymethyl)-4,6-dimethoxy-[1,1′-biphenyl]-2-ol], the inhibition at 50 µM was less than 0%.

`OCc1cc(O)ccc1-c1ccc(O)cc1O` [Compound 2e, 2′-(Hydroxymethyl)-[1,1′-biphenyl]-2,4,4′-triol] displayed an inhibition at 50 µM of less than 0%.

Take `COc1ccc(-c2ccc(O)cc2O)c(CO)c1` [Compound 2f, 2′-(Hydroxymethyl)-4′-methoxy-[1,1′-biphenyl]-2,4-diol]: the inhibition at 50 µM was 47.9 ± 12.8%.

The compound `COc1ccc(-c2ccc(OC)cc2CO)c(O)c1` [Compound 2g, 2′-(Hydroxymethyl)-4,4′-dimethoxy-[1,1′-biphenyl]-2-ol] yielded an inhibition at 50 µM of less than 0%.

As to `COc1ccc(-c2c(O)cc(O)cc2O)c(CO)c1` [Compound 2h, 2′-(Hydroxymethyl)-4′-methoxy-[1,1′-biphenyl]-2,4,6-triol], the “Tyrosinase Inhibition (%)” value came to 26.30 ± 0.75% and testing at 50 µM gave an inhibition of 26%.

In the case of `COc1ccc(-c2c(O)cc(OC)cc2OC)c(CO)c1` [Compound 2i, 2′-(Hydroxymethyl)-4,4′,6-trimethoxy-[1,1′-biphenyl]-2-ol], the inhibition at 50 µM was less than 0%.
